In patent US20240327382A1 (ALMAC DISCOVERY LIMITED, priority 2021, published 2024):

Each molecule was assayed against T1, Full-length USP19 (Homo sapiens, UniProt O94966) (assay: USP19 fluorescence polarisation (FP) assay, Ubiquitin-Lys-TAMRA substrate). Conditions: average of at least two duplicate experiments.
T1 construct: Full-length USP19 was purchased from Boston Biochem (E-576); purchased Boston Biochem E-576
T1 sequence (O94966 1-1318): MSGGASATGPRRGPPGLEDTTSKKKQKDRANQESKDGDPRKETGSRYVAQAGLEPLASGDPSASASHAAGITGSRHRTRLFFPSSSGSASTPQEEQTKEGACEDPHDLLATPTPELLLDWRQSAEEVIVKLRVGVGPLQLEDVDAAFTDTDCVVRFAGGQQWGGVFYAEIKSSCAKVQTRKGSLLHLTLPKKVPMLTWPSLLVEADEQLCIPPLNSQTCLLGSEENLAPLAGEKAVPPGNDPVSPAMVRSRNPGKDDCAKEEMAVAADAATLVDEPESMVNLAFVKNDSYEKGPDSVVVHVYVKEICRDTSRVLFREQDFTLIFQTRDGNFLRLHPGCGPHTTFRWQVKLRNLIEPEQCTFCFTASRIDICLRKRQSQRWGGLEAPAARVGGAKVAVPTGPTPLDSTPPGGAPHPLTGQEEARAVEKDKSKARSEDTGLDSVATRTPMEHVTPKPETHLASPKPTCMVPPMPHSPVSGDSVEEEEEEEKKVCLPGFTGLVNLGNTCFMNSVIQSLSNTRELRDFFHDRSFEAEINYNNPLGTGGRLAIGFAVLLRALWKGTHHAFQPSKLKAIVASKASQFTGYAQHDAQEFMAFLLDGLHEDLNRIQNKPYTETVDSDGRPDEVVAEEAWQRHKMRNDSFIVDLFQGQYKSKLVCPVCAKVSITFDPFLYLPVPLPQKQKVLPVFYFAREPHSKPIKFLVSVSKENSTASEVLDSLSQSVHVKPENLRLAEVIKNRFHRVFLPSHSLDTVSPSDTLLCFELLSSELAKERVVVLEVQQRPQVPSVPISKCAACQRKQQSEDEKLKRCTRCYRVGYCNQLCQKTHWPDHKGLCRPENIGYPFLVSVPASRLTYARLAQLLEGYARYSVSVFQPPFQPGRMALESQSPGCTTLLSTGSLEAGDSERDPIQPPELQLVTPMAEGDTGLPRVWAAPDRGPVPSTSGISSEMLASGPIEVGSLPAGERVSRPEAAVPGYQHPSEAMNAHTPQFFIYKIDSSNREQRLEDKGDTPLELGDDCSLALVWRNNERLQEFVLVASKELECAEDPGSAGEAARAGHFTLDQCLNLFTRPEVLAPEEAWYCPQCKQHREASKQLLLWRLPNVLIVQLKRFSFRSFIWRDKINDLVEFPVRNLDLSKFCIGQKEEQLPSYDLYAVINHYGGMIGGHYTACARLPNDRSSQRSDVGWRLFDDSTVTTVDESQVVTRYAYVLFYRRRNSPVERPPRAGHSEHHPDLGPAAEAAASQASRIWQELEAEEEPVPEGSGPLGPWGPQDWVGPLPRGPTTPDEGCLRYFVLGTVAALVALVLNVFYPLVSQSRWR
Assay type: biochemical
Procedure, shortened: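 Full-length human USP19 (added at 2.5 nM) was preincubated 30 min at RT with inhibitor (serial dilutions 200 μM to 2 μM) in 50 mM HEPES pH 7.4, 150 mM NaCl, 5 mM DTT, 0.05% BSA, 0.05% CHAPS. Ubiquitin-Lys-TAMRA isopeptide substrate (added at 500 nM) started the reaction, and FP (Ex 530/Em 575 nm) was read every 15 min over 90 min. IC50 came from non-linear regression of signal normalised to no-compound control, averaged over at least two duplicate experiments.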

SMILES | IC50
CN[C@@H]1CCN(C(=O)N2CC[C@@H](Cn3cnc(-c4ccccc4OC)cc3=O)C3(CCCC3)C2)[C@H](c2ccccc2F)C1 [Example 103, 3-(((R)-7-((2S,4R)-2-(2-Fluorophenyl)-4-(methylamino)piperidine-1-carbonyl)-7-azaspiro[4.5]decan-10-yl)methyl)-6-(2-methoxyphenyl)pyrimidin-4(3H)-one] | < 10 nM
N[C@@H]1CCN(C(=O)N2CC[C@@H](Cn3cnc4ccc(F)cc4c3=O)C3(CCCC3)C2)[C@H](c2ccccc2)C1 [Example 100, 3-(((R)-7-((2S,4R)-4-Amino-2-phenylpiperidine-1-carbonyl)-7-azaspiro[4.5]decan-10-yl)methyl)-6-fluoroquinazolin-4(3H)-one] | < 10 nM
COc1ccccc1-c1ccn(C[C@@H]2CCN(C(=O)N3CC[C@@H](N)C[C@H]3c3cccc(F)c3)CC23CCCC3)c(=O)c1 [Example 88, 1-(((R)-7-((2S,4R)-4-Amino-2-(3-fluorophenyl)piperidine-1-carbonyl)-7-azaspiro[4.5]decan-10-yl)methyl)-4-(2-methoxyphenyl)pyridin-2(1H)-one] | < 10 nM
O=C(N1CC[C@@H](Cn2ccc(-c3ccccc3)cc2=O)C2(CCCC2)C1)N1CCNC[C@H]1c1ccccc1 (single isomer, unassigned) [Example 16] | < 10 nM
N[C@@H]1CCN(C(=O)N2CCC(Cn3cnc(-c4ccccc4)cc3=O)CC2)[C@H](c2ccccc2)C1 [Example 9, 3-((1-((2S,4R)-4-Amino-2-phenylpiperidine-1-carbonyl)piperidin-4-yl)methyl)-6-phenylpyrimidin-4(3H)-one] | 10 to 100 nM
CN[C@@H]1CCN(C(=O)N2CC[C@@H](Cn3cnc(-c4ccccc4F)cc3=O)C3(CCCC3)C2)[C@H](c2ccccc2)C1 [Example 109, 6-(2-Fluorophenyl)-3-(((R)-7-((2S,4R)-4-(methylamino)-2-phenylpiperidine-1-carbonyl)-7-azaspiro[4.5]decan-10-yl)methyl)pyrimidin-4(3H)-one] | < 10 nM
CSc1ncc2c(=O)n(CC3CCN(C(=O)N4CC[C@@H](N)C[C@H]4c4ccccc4)CC34CCCC4)ccc2n1 (stereo partly drawn) [Example 40, 6-((7-((2S,4R)-4-Amino-2-phenylpiperidine-1-carbonyl)-7-azaspiro[4.5]decan-10-yl)methyl)-2-(methylthio)pyrido [4,3-d]pyrimidin-5(6H)-one] | < 10 nM
COc1ccccc1-c1cc(=O)n(C[C@@H]2CCN(C(=O)N3CC[C@@H](N)C[C@H]3c3ccccc3)CC23CCCC3)cn1 [Example 92, 3-(((R)-7-((2S,4R)-4-Amino-2-phenylpiperidine-1-carbonyl)-7-azaspiro[4.5]decan-10-yl)methyl)-6-(2-methoxyphenyl)pyrimidin-4(3H)-one] | < 10 nM
CN[C@@H]1CCN(C(=O)N2CC[C@@H](Cn3ccc(-c4ccccc4)cc3=O)C3(CCCC3)C2)[C@H](c2ccc(F)cc2F)C1 [Example 95, 1-(((R)-7-((2S,4R)-2-(2,4-Difluorophenyl)-4-(methylamino)piperidine-1-carbonyl)-7-azaspiro[4.5]decan-10-yl)methyl)-4-phenylpyridin-2(1H)-one] | < 10 nM

The remaining lines, values ahead:

IC50 | SMILES
< 10 nM | CC(C)N[C@@H]1CCN(C(=O)N2CC[C@@H](Cn3cnc4ccc(F)cc4c3=O)C3(CCCC3)C2)[C@H](c2cc(F)ccc2F)C1 [Example 189, 3-(((R)-7-((2S,4R)-2-(2,5-Difluorophenyl)-4-(isopropylamino)piperidine-1-carbonyl)-7-azaspiro[4.5]decan-10-yl)methyl)-6-fluoroquinazolin-4(3H)-one]
< 10 nM | CN[C@@H]1CCN(C(=O)N2CC[C@@H](CN3CCC(c4ccccc4OC)=CC3=O)C3(CCCC3)C2)[C@H](c2ccc(F)cc2F)C1 (racemic) [Example 127, 1-(((R)-7-((2S,4R)-2-(2,4-Difluorophenyl)-4-(methylamino)piperidine-1-carbonyl)-7-azaspiro[4.5]decan-10-yl)methyl)-4-(2-methoxyphenyl)-5,6-dihydropyridin-2(1H)-one and 1-(((S)-7-((2S,4R)-2-(2,4-Difluorophenyl)-4-(methylamino)piperidine-1-carbonyl)-7-azaspiro[4.5]decan-10-yl)methyl)-4-(2-methoxyphenyl)-5,6-dihydropyridin-2(1H)-one]
< 10 nM | CCN[C@@H]1CCN(C(=O)N2CC[C@@H](Cn3cnc4ccc(F)cc4c3=O)C3(CCCC3)C2)[C@H](c2cc(F)ccc2F)C1 [Example 162, 3-(((R)-7-((2S,4R)-2-(2,5-Difluorophenyl)-4-(ethylamino)piperidine-1-carbonyl)-7-azaspiro[4.5]decan-10-yl)methyl)-6-fluoroquinazolin-4(3H)-one]
10 to 100 nM | O=C(N1CC[C@@H](Cn2cnc(C3CC3)cc2=O)C2(CCCC2)C1)N1CC[C@@H](NCC(F)F)C[C@H]1c1cc(F)ccc1F [Example 182, 6-Cyclopropyl-3-(((R)-7-((2S,4R)-4-((2,2-difluoroethyl)amino)-2-(2,5-difluorophenyl)piperidine-1-carbonyl)-7-azaspiro[4.5]decan-10-yl)methyl)pyrimidin-4(3H)-one]
< 10 nM | CC(C)N[C@@H]1CCN(C(=O)N2CC[C@@H](Cn3cnc(-c4ccccc4)cc3=O)C3(CCCC3)C2)[C@H](c2cc(F)cc(F)c2)C1 [Example 192, 3-(((R)-7-((2S,4R)-2-(3,5-Difluorophenyl)-4-(isopropylamino)piperidine-1-carbonyl)-7-azaspiro[4.5]decan-10-yl)methyl)-6-phenylpyrimidin-4(3H)-one]
< 10 nM | CN[C@@H]1CCN(C(=O)N2CC[C@@H](Cn3ccc(Cl)cc3=O)C3(CCCC3)C2)[C@H](c2cc(F)ccc2F)C1 [Example 123, 4-Chloro-1-(((R)-7-((2S,4R)-2-(2,5-difluorophenyl)-4-(methylamino)piperidine-1-carbonyl)-7-azaspiro[4.5]decan-10-yl)methyl)pyridin-2(1H)-one]
< 10 nM | O=C(N1CC[C@@H](Cn2cnc(-c3ccccc3)cc2=O)C2(CCCC2)C1)N1CC[C@@H](NCCO)C[C@H]1c1ccccc1 [Example 161, 3-(((R)-7-((2S,4R)-4-((2-Hydroxyethyl)amino)-2-phenylpiperidine-1-carbonyl)-7-azaspiro[4.5]decan-10-yl)methyl)-6-phenylpyrimidin-4(3H)-one]
100 to 1000 nM | Cn1ccc(N[C@@H]2CCN(C(=O)N3CC[C@@H](Cn4cnc(-c5ccccc5)cc4=O)C4(CCCC4)C3)[C@H](c3ccccc3)C2)n1 [Example 147, 3-(((R)-7-((2S,4R)-4-((1-Methyl-1H-pyrazol-3-yl)amino)-2-phenylpiperidine-1-carbonyl)-7-azaspiro[4.5]decan-10-yl)methyl)-6-phenylpyrimidin-4(3H)-one]
10 to 100 nM | O=C(N1CC[C@@H](Cn2cnc(C(F)F)cc2=O)C2(CCCC2)C1)N1CC[C@@H](NCC(F)F)C[C@H]1c1cc(F)ccc1F [Example 152, 3-(((R)-7-((2S,4R)-4-((2,2-Difluoroethyl)amino)-2-(2,5-difluorophenyl)piperidine-1-carbonyl)-7-azaspiro[4.5]decan-10-yl)methyl)-6-(difluoromethyl)pyrimidin-4(3H)-one]
< 10 nM | COc1ccccc1-c1cc(=O)n(C[C@@H]2CCN(C(=O)N3CCNC[C@H]3c3cccc(F)c3)CC23CCCC3)cn1 [Example 115, 3-(((R)-7-((R)-2-(3-Fluorophenyl)piperazine-1-carbonyl)-7-azaspiro[4.5]decan-10-yl)methyl)-6-(2-methoxyphenyl)pyrimidin-4(3H)-one]
